Results from ChEMBL document CHEMBL1201862, “PubChem BioAssay data set” (2004).
The source made the active and inactive calls.

What was measured:
[1] = inhibitors of Vif binding to APOBEC3G peptide, primary screen, biochemical, TR-FRET, GST-Vif 1-94, biotin-A3G peptide, dose response retest (AID 1117319); assay type: functional;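 also: TR-FRET signal of purified GST-Vif binding a biotinylated A3G peptide; inhibitors lower the FRET signal by blocking Vif and A3G binding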
[2] = molecular target: Protein Tat (Human immunodeficiency virus type 1 group M subtype B (isolate HXB2)(HIV-1), UniProt P04608); assay type: functional;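 also: tat binding to TAR RNA read out by fluorescence polarization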
[3] = cells
[4] = molecular target: Major prion protein (Homo sapiens, UniProt P04156); assay type: functional, cell-based
[5] = P. falciparum late gametocyte killing, dose response, luminescence (AID 1117278); assay type: functional, cell-based;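 also: gametocytes exposed to compound for 24 hours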
[6] = system: Streptococcus sp. 'group A'; test: growth inhibition of control SK(-) GAS strain, dose response, counter-screen for streptokinase expression inhibitor project, luminescence, kanamycin, BacTiterGlo, confirmation (AID 1900); assay type: functional, organism-based
[7] = Jurkat T cell cytotoxicity, dose response, cytotoxicity control for P. falciparum gametocyte viability project, luminescence (AID 1117277); assay type: functional, cell-based;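 also: potency reflects loss of cellular ATP meaning fewer viable cells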
[8] = molecular target: T1, Streptokinase A (Streptococcus pyogenes serotype M1, UniProt P10520); test: S. pyogenes streptokinase expression inhibitors, potency, dose response, plasminogen activation absorbance, OD405 (AID 1914); assay type: functional, Streptococcus pyogenes M1 GAS;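 also: secreted streptokinase activity via plasminogen activation per viability signal from cell pellet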
T1 sequence (P10520 whole entry): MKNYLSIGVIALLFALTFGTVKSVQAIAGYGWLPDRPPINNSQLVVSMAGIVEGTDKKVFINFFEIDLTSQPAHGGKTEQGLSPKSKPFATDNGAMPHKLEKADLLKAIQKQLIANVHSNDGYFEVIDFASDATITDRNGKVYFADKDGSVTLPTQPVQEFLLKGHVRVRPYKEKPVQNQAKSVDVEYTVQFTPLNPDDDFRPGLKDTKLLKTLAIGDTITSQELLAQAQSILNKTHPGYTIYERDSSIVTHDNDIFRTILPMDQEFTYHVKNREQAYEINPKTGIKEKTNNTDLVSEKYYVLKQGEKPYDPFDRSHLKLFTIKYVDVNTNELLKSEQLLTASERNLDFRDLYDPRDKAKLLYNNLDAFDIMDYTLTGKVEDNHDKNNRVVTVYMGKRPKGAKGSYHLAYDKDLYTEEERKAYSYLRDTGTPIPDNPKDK

[9] = system: Streptococcus; test: Group A Streptococcus viability loss, dose response, counter-screen for streptokinase expression inhibitor project, luminescence, BacTiterGlo (AID 1915); assay type: functional, organism-based;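 also: potency for reduction of bacterial viability or growth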
[10] = Counterscreen for […] of the human trace amine associated receptor 1 (TAAR1): Fluorescence-based cell-based high throughput dose response assay to identify nonselective Ga16 agonists.; assay type: functional
[11] = molecular target: T2, Trace amine-associated receptor 1 (Homo sapiens, UniProt Q96RJ0); test: Fluorescence-based cell-based high throughput dose response assay to identify antagonists of the human trace amine associated receptor 1 (TAAR1).; assay type: functional
T2 sequence (Q96RJ0 whole entry): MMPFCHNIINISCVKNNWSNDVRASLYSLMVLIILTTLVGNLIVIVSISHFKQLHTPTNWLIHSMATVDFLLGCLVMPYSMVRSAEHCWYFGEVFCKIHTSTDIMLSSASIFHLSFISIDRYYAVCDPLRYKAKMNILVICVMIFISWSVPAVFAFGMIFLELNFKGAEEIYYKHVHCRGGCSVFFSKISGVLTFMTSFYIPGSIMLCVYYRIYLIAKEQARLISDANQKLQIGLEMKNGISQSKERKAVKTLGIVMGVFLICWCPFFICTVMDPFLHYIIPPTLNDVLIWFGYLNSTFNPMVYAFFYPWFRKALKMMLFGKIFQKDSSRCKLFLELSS

[12] = molecular target: T2, Trace amine-associated receptor 1; test: Counterscreen for antagonists of the human trace amine associated receptor 1 (hTAAR1): Fluorescence-based cell-based high throughput dose response assay to identify TAAR1 Agonists.; assay type: functional
[13] = Counterscreen for antagonists of the human trace amine associated receptor 1 (hTAAR1): Fluorescence-based cell-based high throughput dose response assay to identify nonselective Ga16 antagonists.; assay type: functional
[14] = THP-1 cell cytotoxicity, dose response, cytotoxicity control for Vif-APOBEC3G degradation inhibitor project, THP-1 cells (AID 1117359); assay type: functional; details: Human immunodeficiency virus 1, THP-1
[15] = A2780 ovarian cancer cell cytotoxicity, dose response, cytotoxicity control, plate reader, dry powder samples (AID 743046); assay type: functional, cell-based
[16] = molecular target: Paired box protein Pax-8 (Homo sapiens, UniProt Q06710); test: inhibitors of PAX8-driven TPO luciferase reporter, dose response, RMG-I cells, cherry-pick (AID 687027); assay type: functional, cell-based;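 also: luciferase reporter driven by Pax8 target thyroperoxidase promoter measured by SteadyGlo luminescence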
[17] = molecular target: T3, Oxysterols receptor LXR-beta (Homo sapiens, UniProt P55055); assay type: functional, cell-based;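 also: Cell-based luminescence dose-response assay of agonist activity at LXR, run as a confirmatory counterscreen to a daf-12 agonist screen; HEK293 cells with Gal4-LXR fusion and GAL4-driven luciferase reporter; agonist potency from rising luciferase signal of a Gal4-LXR reporter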
T3 sequence (P55055 whole entry): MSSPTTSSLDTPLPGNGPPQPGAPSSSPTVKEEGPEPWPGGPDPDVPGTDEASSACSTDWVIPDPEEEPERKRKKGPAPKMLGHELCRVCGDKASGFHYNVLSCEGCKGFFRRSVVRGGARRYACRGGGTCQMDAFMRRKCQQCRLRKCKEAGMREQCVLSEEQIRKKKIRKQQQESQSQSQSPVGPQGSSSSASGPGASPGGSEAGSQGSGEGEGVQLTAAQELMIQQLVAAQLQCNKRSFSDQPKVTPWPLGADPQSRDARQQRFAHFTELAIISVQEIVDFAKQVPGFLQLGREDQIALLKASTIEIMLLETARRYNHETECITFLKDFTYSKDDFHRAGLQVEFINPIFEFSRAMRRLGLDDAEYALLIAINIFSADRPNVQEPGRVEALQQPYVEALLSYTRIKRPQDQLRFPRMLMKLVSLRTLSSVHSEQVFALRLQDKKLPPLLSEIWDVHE

[18] = cells; remark: listed apart in the source
[19] = HepG2 cell cytotoxicity, dose response, cytotoxicity control, plate reader, dry powder, set 6 (AID 743311); assay type: functional, cell-based
[20] = cells; details: HEK293
[21] = A549 cell cytotoxicity, dose response, cytotoxicity control, plate reader, dry powder, set 6 (AID 743312); assay type: functional, cell-based
[22] = P. falciparum 3D7-ScDHODH growth inhibitors, dose response, SYBR Green, dry powder samples (AID 1159570); assay type: functional, cell-based;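 also: parasite growth measured after 72 hours of compound exposure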
[23] = P. falciparum ATP4 D1247Y mutant growth inhibitors, dose response, NITD609-resistant line, SYBR Green, dry powder (AID 1159571); assay type: functional, cell-based;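 also: parasites synchronized at ring stage by sorbitol before testing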
[24] = P. falciparum Dd2 growth inhibitors, dose response, SYBR Green, dry powder samples (AID 1159566); assay type: functional, cell-based;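 also: potency for growth inhibition with lower SYBR green DNA signal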
[25] = P. falciparum Dd2 growth inhibitors, dose response, SYBR Green, cherry-picked samples (AID 1159567); assay type: functional, cell-based
[26] = Glucagon-like peptide 1 release potency, NCI-H716 cell line, dose-response, half-maximal inhibitory concentration (AID 1117344); assay type: functional, cell-based
[27] = half-maximal inhibitory concentration for glucagon-like peptide-1 release, STC-1 cell line, dose-response (AID 1117345); assay type: functional, cell-based

SMILES: CC(=O)C1=C(O)C(=O)N(Cc2ccco2)C1c1ccc(F)cc1 (stereo not drawn)
- IC50 [1]: > 100 µM (active)
- IC50 [2]: > 100 µM (active)

SMILES: CC(C)(C)c1nc(SCC(=O)NNC(=O)c2ccccc2)c2ccccc2n1
- IC50 [3]: > 138 µM (inactive)
- IC50 [4]: 5.46 µM (active)

SMILES: COc1ccc2ncc(S(=O)(=O)c3ccccc3)c(N3CCN(c4ccccc4)CC3)c2c1
- IC50 [5]: > 109 µM (inactive)
- EC50 [6]: 9.42 µM (active)
- IC50 [7]: > 83.3 µM (inactive)
- EC50 [8]: > 150 µM (not active)
- EC50 [9]: 74.8 µM (active)

SMILES: O=[N+]([O-])c1ccc(-c2c(-c3ccccc3)ncc3ccc(F)cc23)cc1
- EC50 [10]: > 29.9 µM (inactive)
- IC50 [11]: 1.83 µM (active)
- EC50 [12]: > 29.9 µM (inactive)
- IC50 [13]: > 29.9 µM (inactive)

SMILES: COc1cccc(-c2nc(CS(=O)(=O)CC(=O)NC3CC3)c(C)o2)c1
- CC50 [14]: > 40 µM (active)

SMILES: C[C@H]1CN([C@@H](C)CO)C(=O)Cc2cc(NC(=O)Nc3ccc(C(F)(F)F)cc3)ccc2O[C@H]1CN(C)C(=O)Nc1ccc(C(F)(F)F)cc1
- AC50 [15]: 25.8 µM (active)
- AC50 [16]: 13 µM (active)

SMILES: Cc1ccsc1/C=N/N=C/c1sccc1C
- EC50 [17]: > 67.5 µM (inactive)
- EC50 [18]: > 67.5 µM (inactive)

SMILES: CC(C)(C)c1ccc(OCCn2cnc3ccccc32)c(Cl)c1
- AC50 [19]: 36.6 µM (active)
- AC50 [20]: 37.4 µM (active)

SMILES: CC(C)(C)c1ccc(OCCn2c(CO)nc3ccccc32)cc1
- AC50 [21]: 20.6 µM (active)
- AC50 [20]: 21.6 µM (active)

SMILES: OC[C@H]1CC[C@@H]2O[C@H](CCc3ccc(C#CCc4ccccc4)cc3)[C@H](n3cc(-c4ccccc4)nn3)C[C@@H]2O1
- AC50 [22]: 1.39 µM (active)
- AC50 [23]: 0.665 µM (active)
- AC50 [24]: 0.407 µM (active)
- AC50 [25]: 0.739 µM (active)

SMILES: O=c1oc2ccccc2c(O)c1C(CC(O)c1ccc(-c2ccc(Br)cc2)cc1)c1ccccc1 (stereo not drawn) [BROMODIOLONE]
- IC50 [26]: > 40 µM (inactive)
- IC50 [27]: 9.16 µM (inactive)
